Key:
[1] = tested on: AsPC-1 cells; test: AsPC-1 CTG proliferation assay (120 h) (pancreatic cancer, G12D); assay type: cell-based; conditions: Homo sapiens, ASPC1
Procedure, shortened: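 CellTiter-Glo luminescence, normalised to DMSO wells, measured viability after 120 h compound exposure. Cells were AsPC-1 pancreatic cancer (G12D) plated at 2000 per well in RPMI/10% FCS the day before dosing. IC50 derived by four-parameter regression.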

[2] = tested on: SK-CO-1 cells; test: SK-CO-1 CTG proliferation assay (120 h) (CRC, G12V); assay type: cell-based; conditions: Homo sapiens; SK-CO-1 cells (CRC, G12V), CTG 120 h
Procedure, shortened: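 Compound exposure lasted 120 h in KRAS G12V SK-CO-1 cells seeded overnight at 500 cells/well in 10% FCS EMEM. CellTiter-Glo RLU normalised to DMSO wells gave percent viability, and a four-parameter model fit yielded IC50.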

[3] = Metabolic (microsomal) stability assay, human liver microsomes (HLM); assay type: in vitro ADME; conditions: predicted clearance as percent of liver blood flow, 1 μM
Procedure, shortened: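 LC-MS/MS tracked parent disappearance at 0, 5, 15, 30 and 60 min in NADPH-initiated incubations with 1 mg/mL human microsomal protein and 1 μM compound at 37°C, pH 7.5. First-order fits gave intrinsic clearance, which was scaled up and reported as % QH. NADPH-free controls were also run.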

[4] = Plasma protein binding assay (PPB), equilibrium dialysis, 10% FCS in PBS; assay type: in vitro ADME; conditions: bovine, read-out: PPB 10% FCS (% fu)
Procedure, shortened: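 Test compound (1-10 μmol/L) in 10% FCS in PBS was dialysed for 3-5 h at 37° C versus PBS ± dextran across a semipermeable membrane. LC-MS of both compartments after protein precipitation gave Cserum and Cbuffer, from which the unbound fraction fu was derived.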

Structure (SMILES) | IC50 [1] [nM] | IC50 [2] [nM] | HLM QH [3] [%] | fraction unbound [4]
C[C@H](Oc1cc(-n2cc(C(=O)N(C)C)nn2)nc(-c2noc3c2CCC[C@@]32CCCc3sc(N)c(C#N)c32)n1)[C@@H]1CCCN1C [II-132] | 5110 | 18 | 36 | 0.31
C[C@H](Oc1cc(-n2ccc(-c3cn([C@H]4CCOC4)nn3)n2)nc(-c2noc3c2CCC[C@@]32CCCc3sc(N)c(C#N)c32)n1)[C@@H]1CCCN1C [II-212] | 170 | 4 | <24 | 0.05
CO[C@@H]1C[C@@H]([C@H](C)Oc2cc(-c3cnn(C)n3)nc(-c3onc4c3CCC[C@@]43CCCc4sc(N)c(C#N)c43)n2)N(C)C1 [I-17] | 9850 | 357 | 56 | 0.24
C[C@H](Oc1cc(C2=CCNCC2)nc(-c2noc3c2CCC[C@@]32CCCc3sc(N)c(C#N)c32)n1)[C@@H]1CCCN1C [II-164] | 483 | 287 | <24 | 0.54
[2H]C([2H])([2H])N1C[C@H](F)C[C@H]1[C@H](C)Oc1cc(N2CCN(C([2H])([2H])[2H])C3(CC3)C2)nc(-c2noc3c2CCC[C@@]32CCCc3sc(N)c(C#N)c32)n1 [II-207] | 82 | 1260 | 40 | 0.09
C[C@H](Oc1cc(-n2cc3c(n2)CCN(C)C3)nc(-c2noc3c2CCC[C@@]32CCCc3sc(N)c(C#N)c32)n1)[C@@H]1CCCN1C [II-141] | 244 | 436 | 28 | 0.6
C[C@H](Oc1cc(-n2ccc(C3(O)COC3)n2)nc(-c2noc3c2CCC[C@@]32CCCc3sc(N)c(C#N)c32)n1)[C@@H]1CCCN1C [II-189] | 1150 | 45 | <24 | 0.16
CO[C@H]1CCN(C)[C@@H]1[C@H](C)Oc1cc(-n2ccc(C(N)=O)n2)nc(-c2noc3c2CCC[C@@]32CCCc3sc(N)c(C#N)c32)n1 [II-201] | 651 | 9 | 41 | 0.07
C[C@H](Oc1cc(N2CCNC[C@]23CCOC3)nc(-c2onc3c2CCC[C@@]32CCCc3sc(N)c(C#N)c32)n1)[C@@H]1CCCN1C [I-12] | 235 | 710 | 36 | 0.46
CO[C@H]1CCN(C)[C@@H]1[C@H](C)Oc1cc(-n2ccc(CC(=O)NC(C)C)n2)nc(-c2noc3c2CCC[C@@]32CCCc3sc(N)c(C#N)c32)n1 [II-183] | 162 | 7 | 75 | 0.04
C[C@H](Oc1cc(N2CCNC3(CC3)C2)nc(-c2noc3c2CCC[C@@]32CCCc3sc(N)c(C#N)c32)n1)[C@@H]1C[C@@H](F)CN1C [II-165] | 25 | 529 | 61 | 0.16
CO[C@H]1CCN(C)[C@@H]1[C@H](C)Oc1cc(-n2ccc(C(=O)N(C)C3COC3)n2)nc(-c2noc3c2CCC[C@@]32CCCc3sc(N)c(C#N)c32)n1 [II-199] | 446 | 17 | 67 | 0.07
CO[C@H]1CCN(C)[C@@H]1[C@H](C)Oc1cc(-n2ccc(C(=O)N[C@@H](C)c3ccccn3)n2)nc(-c2noc3c2CCC[C@@]32CCCc3sc(N)c(C#N)c32)n1 [II-196] | 248 | 4 | 75 | 0.01
C[C@H](Oc1cc(N2CCN(C)C3(COC3)C2)nc(-c2noc3c2CCC[C@@]32CCCc3sc(N)c(C#N)c32)n1)[C@@H]1C[C@@H](F)CN1C [II-148] | 376 | 779 | 52 | 0.25

From patent US20240174690A1, “ANNULATED 2-AMINO-3-CYANO THIOPHENES AND DERIVATIVES FOR THE TREATMENT OF CANCER” (BOEHRINGER INGELHEIM INTERNATIONAL GMBH, priority 2021, published 2024)
